System: gap junction channels
Assay: Cell-cell dye transfer after local uncaging in C. elegans embryos (control experiments)
Assay type: in vivo
Conditions: α-GA 25 μM, 4-cell embryo, eggshell thinned with bleach and chitinase, ABp uncaged
Description: To study the pattern of cell-cell coupling during early development, embryos were collected from injected worms and subjected to differential interference contrast (“DIC”) imaging. Three to four hours after injection, early embryos were collected from injected worms by cutting the worms near the uterus. Labeled embryos were transferred onto a 2% agar pad, covered with a coverslip, and mounted on an inverted fluorescence microscope (Axiovert 200M, Carl Zeiss, Peabody, Mass.). During uncaging and imaging, motorized filter wheels (Ludl Electronics Products, Hawthorne, N.Y.) were employed to select excitation and emission wavelengths by passing light from a Xeon lamp (75 W) through bandpass filters (Chroma Technology, Rockingham, Vt.). A neutral density filter was also added to the light path to reduce the excitation light intensity by about 70%. The typical UV uncaging duration is about 2 seconds. Bandpass filters were chosen for UV uncaging (360±20 nm), coumarin imaging (excitation 425±5 nm, emission 460±15 nm), GFP imaging (excitation 488±7.5 nm, emission 530±20 nm), and rhodamine imaging (excitation 560±20 nm, emission 615±30 nm). A customized multiple path dichroic mirror was used for the UV uncaging and 3-color imaging. Epifluorescence was collected with a cooled CCD camera (ORCA-ER, Hamamatsu, Bridgewater, N.J.) under the control of OpenLab software (Improvision, Waltham, Mass.). […]

## CC1(C)[C@@H](O)CC[C@]2(C)[C@H]3C(=O)C=C4[C@H]5C[C@@](C)(C(=O)O)CC[C@]5(C)CC[C@@]4(C)[C@]3(C)CC[C@@H]12 [α-GA, 18α-glycyrrhetinic acid]
  cell-cell dye transfer after uncaging dextran-CANPE-HCC in presence of blocker: dye transfer was not observed

From US8153103B2, “Conjugates of photo-activatable dyes” (Board of Regents, The University of Texas System, priority 2008, dated 2012)
